{"source": "paper PMC5399052", "about": "“Integrating in vitro data and physiologically based kinetic (PBK) modelling to assess the in vivo potential developmental toxicity of a series of phenols” (Archives of Toxicology, 2016)", "key": {"BeWo cells": {"test_system": "BeWo cells", "assay": "In vitro placental transport study (BeWo b30 transwell)", "method": "BeWo cells (passages 28–31) were cultured in DMEM with […] and supplemented with 10% (v/v) heat-inactivated FCS, 2 mM L-glutamine, 10,000 U/ml penicillin and 10 mg/ml streptomycin and maintained in polystyrene cell culture flasks (Corning, Amsterdam, the Netherlands) in a 5% CO2-humidified atmosphere at 37 °C. Cells were harvested after exposure to a trypsin–EDTA solution. Next, the cells were seeded onto Transwell® inserts (0.4-µm pored polycarbonate membrane, 12 mm diameter), with a density of 10^5 cells/cm^2. Cell culture medium (0.5 and 1.5 ml in the apical and basolateral compartment, respectively) was changed daily.\nTransport experiments were performed 6 days post-seeding. The transport buffer consisted of HBSS with 30 mg/ml bovine serum albumin (apical compartment) and 10 mg/ml bovine serum albumin (basolateral compartment) representing mid- and late gestational maternal and embryonic/foetal rat plasma albumin levels, respectively (Honda et al. [2008]; Mcmullin et al. [2008]; Yeoh and Morgan [1974]). The transport experiments were performed for the same compounds and according to the same method as described for the Caco-2 transport experiments, except that only cell layers with a TEER value >190 Ω cm^2 were used for the transport experiments. The BeWo transport studies encompassed four independently performed experiments including two replicates in each assay. Samples were analysed by UPLC–PDA (see “Quantification of analytes” section) for the presence of the test compound and possible metabolites. The apparent permeability coefficients were calculated using the same method as described for the Caco-2 transport experiments."}, "rat liver microsomes": {"test_system": "rat liver microsomes", "assay": "Glucuronidation of phenols by rat liver microsomes", "conditions": "for Vmax(app) glucuronidation (± SD): rat liver microsomes, 10 mM UDPGA, alamethicin activated", "method": "The formation of glucuronide metabolites of the p-substituted phenols was investigated in incubations with rat liver microsomes. […] To obtain maximum glucuronidation activity, the microsomes were activated by preincubating the incubation mixture with 0.025 mg/ml alamethicin added from a 200 times concentrated stock solution in methanol, during 15 min on ice (Fisher et al. [2000]). Subsequently, the incubations were started after a 1-min preincubation at 37 °C by addition of the substrate from a 200 times concentrated stock solution in DMSO and incubated in a shaking water bath at 37 °C for 45 min. The reactions were terminated by addition of ice-cold acetonitrile (20% v/v). In the blank incubation mixtures, UDPGA was omitted. Samples were analysed by UPLC–PDA (see “Quantification of analytes” section). No reference standards of the glucuronide metabolites were commercially available. […] At first, retention times from the UPLC–PDA chromatograms of the parent compound of the blank incubation were compared with the retention times of newly appearing peaks in chromatograms of the incubation mixtures, as the glucuronide conjugates are expected to elute earlier compared with their parent compounds due do their increased hydrophilicity. […] For this purpose, a volume of 10 µl of the incubation mixture of the glucuronidation assay (that was not terminated by the addition of ice-cold acetonitrile) was added to 90 µl of 200 mM potassium phosphate (pH 6.2). Then, 4 µl of glucuronidase (200 units/ml) was added, and the mixtures were incubated for 60 min in a shaking water bath at 37 °C. The reactions were terminated by addition of ice-cold acetonitrile (20% v/v) and were put on ice. Control samples were treated under the same conditions, but without glucuronidase.\nThe conditions of the incubation assays were optimised to obtain linear reaction rates with respect to incubation time and protein concentration and non-limiting cofactor levels were applied. […] To obtain maximum glucuronidation activity, the microsomes were activated by preincubating the incubation mixture with 0.025 mg/ml alamethicin added from a 200 times concentrated stock solution in methanol, during 15 min on ice (Fisher et al. [2000]).\nKinetic constants for the glucuronidation of the p-substituted phenols were derived by fitting the data to the standard Michaelis–Menten equation; v=Vmax∗S/Km+[S] in which [S] represents the substrate concentration, V max the maximum velocity and K m the Michaelis–Menten constant for the formation of the glucuronide metabolites. Data analysis was accomplished using GraphPad Prism 5.0 software (GraphPad, San Diego, CA, USA). […] The in vivo K m value was assumed to be the same to the in vitro K m value.\nSamples from the BeWo and Caco-2 transport experiments were centrifuged at 13,000 rpm at 5 °C for 15 min. Next 7.5 µl of the supernatant of each sample was analysed by UPLC (Waters Acquity). Samples from the glucuronidation assays were centrifuged at 15,000 rpm at 5 °C for 5 min. […] All samples, except those from transport studies with fluorescein, were analysed on a Waters BEH C18 1.7 µm column, 2.1 × 50 mm, with nanopure water (0.1% TFA) (A) and pure acetonitrile (B) applying a gradient elution. The start condition was 100:0 (A:B), changing to 90:10 from 1 to 2 min, then to 10:90 from 2 to 4 min (or from 2 to 3 min when analysing samples for p-heptyloxyphenylglucuronide), remaining at this ratio for 0.5 min and then rapidly declining to the start condition. The flow rate was 0.6 ml/min."}, "[1]": {"conditions": "cited from earlier work; for Concentration in EST culture medium over time: without cells, ref Strikwold et al. [2012]"}, "[2]": {"conditions": "P app ratio to antipyrine multiplied by antipyrine clearance 0.18 l/h, GD11"}}, "note": "Where two headings read alike, the source gives them in different places.", "data": [{"smiles": "Oc1ccccc1", "note": "[Phenol]", "values": [{"measurement": "P app fold higher than antipyrine", "setting": "BeWo cells; BeWo", "result": 1.03, "unit": "fold"}, {"measurement": "CLPL, predicted rat transplacental clearance", "setting": "BeWo cells; [2]", "result": 0.19, "unit": "L/h"}, {"measurement": "Scaled catalytic efficiency", "setting": "rat liver microsomes; scaled to rat liver", "result": 0.44, "unit": "l/h/g liver"}, {"measurement": "Scaled Vmax(app)", "setting": "rat liver microsomes; scaled with microsomal protein yield 38 mg/g rat liver", "result": 205, "unit": "µmol/h/g liver"}, {"measurement": "Loss in the EST", "setting": "[1]; 10-day EST, ref Strikwold et al. [2013]", "result": 39, "unit": "%"}, {"measurement": "Concentration in EST culture medium over time", "setting": "[1]", "result": "decreased in time"}]}, {"smiles": "Oc1ccc(F)cc1", "note": "[p-Fluorophenol, p-fluorophenol]", "values": [{"measurement": "CLPL, predicted rat transplacental clearance", "setting": "BeWo cells; [2]", "result": 0.15, "unit": "L/h"}, {"measurement": "Catalytic efficiency (Vmax/Km)", "setting": "rat liver microsomes; Sprague-Dawley, rat, pH 7.4", "result": 0.32, "unit": "ml/min/mg protein"}, {"measurement": "Scaled catalytic efficiency", "setting": "rat liver microsomes; Sprague-Dawley, rat, pH 7.4", "result": 0.74, "unit": "l/h/g liver"}, {"measurement": "Vmax(app) glucuronidation (± SD)", "setting": "rat liver microsomes", "result": "101 ± 1.6 nmol/min/mg microsomal protein"}, {"measurement": "Scaled Vmax(app)", "setting": "rat liver microsomes; rat, pH 7.4", "result": 231, "unit": "µmol/h/g liver"}, {"measurement": "Concentration in EST culture medium over time", "setting": "[1]", "result": "decreased in time"}]}, {"smiles": "CC(=O)c1ccc(O)cc1", "note": "[p-Methylketophenol, p-methylketophenol]", "values": [{"measurement": "CLPL, predicted rat transplacental clearance", "setting": "BeWo cells", "result": 0.12, "unit": "L/h"}, {"measurement": "Catalytic efficiency (Vmax/Km)", "setting": "rat liver microsomes", "result": 1.16, "unit": "ml/min/mg protein"}, {"measurement": "Km", "setting": "rat liver microsomes", "result": "138 ± 17", "unit": "µM"}, {"measurement": "Scaled Vmax(app)", "setting": "rat liver microsomes", "result": 365, "unit": "µmol/h/g liver"}, {"measurement": "Scaled catalytic efficiency", "setting": "rat liver microsomes", "result": 2.65, "unit": "l/h/g liver"}, {"measurement": "Vmax(app) glucuronidation (± SD)", "setting": "rat liver microsomes", "result": "160 ± 4.4 nmol/min/mg microsomal protein"}, {"measurement": "Concentration in EST culture medium over time", "setting": "[1]", "result": "stable"}]}]}
